# Values of other authors as cited in paper PMC12299890 (Pharmaceuticals, 2025).
# Like-named read-outs stand apart in the source and are kept apart here.
# Parameters: method as in PMID 27121673
# Conditions: cited from earlier work
smiles,measurement,setting,value
"O[C@H]1[C@H](O)[C@@H](O)[C@H](O)[C@@H](O)[C@@H]1O [SCI, scyllo-inositol]",Time of maximum plasma concentration,"after the last dose, 2000 mg two times a day for 10 days",2.9 h
same,AUC of SCI in CSF,"day 1, oral 2000 mg two times a day",49.4 µg·h/mL
same,AUC of SCI in CSF,"day 11, oral 2000 mg two times a day",153.0 µg·h/mL
same,Increase of brain concentration of SCI during the study,oral 2000 mg two times a day for 10 days,58–76%
same,Side effects reported,oral 2000 mg two times a day,No side effects
same,Time of peak SCI plasma concentration,"plasma, after first oral dose of 2000 mg twice a day",3.8 h
